Where “and” joins values, the source holds several entries; their conditions need not be identical. Equal values may be shown once. Read-outs that look alike come from different tables or passages of the source.
What was measured:
[1] = system: Yoshida sarcoma; assay type: in vivo, rat (male Sprague-Dawley rats)
Description: The chemotherapeutic activity of nitrosoureas was compared in antitumor tests using Yoshida sarcoma ascited cells implanted into the wall of the descending colon in Sprague-Dawley rats.
(§1) Male Sprague-Dawley rats were used in the experiments. Yoshida sarcome in ascites form was maintained in the same strain of rats by serial intraperitoneal injection of 0,5 ml of ascites fluid.
(§2) 3×10^6 cells were injected into the colon wall in a manner known per se. The chemotherapeutic treatment was carried out on the eighth day after implantation of the tumor cells.
(§3) Water-insoluble compounds were dissolved in Cremophor EL/ethanol/physiological saline (20:20:60: vol.%). Water-soluble substances were dissolved in physiological saline. Cremophor EL is a surfactant on the basis of polyethoxylated castor oil. All test compounds were administered introperitoneally. The nitrosoureas were applied at approximately equitoxic doses corresponding to about 80% of the acute LD50 values observed in healthy rats of the same strain over a 28-day observation period.
Each experiment involved an untreated control group and a varying number of treated groups. Individual survival times were counted as days after tumor inoculation. At the time of death a record of whether an animal was tumor-free or not was made. All animals alive 120 days after tumor inoculation were killed. Animals that according to macroscopic examination had no tumor at the end of the experiment were considered as cured. Since in a number of control rats also no tumors occurred after 120 days the differences in cures between controls and treated animals rather than absolute numbers are reported. Differences in survival were evaluated statistically by individual comparisons between treated rats and controls using a nonparametric log-rank test (Kalbfleisch and Prentice, The statistical analysis of failure time data, Wiley, New York, 1979). Numerical evaluation was performed using a computerized system.

[2] = Mean animal weight / weight gain after tumor transplantation; assay type: in vivo, rat (Sprague-Dawley rats); details: CP 70 (exp. 1-3), BCNU 25, MeCCNU 45 (exp. 1), picolyl-3-CNU 25, its HCl 25 (exp. 2), morpholino-CNU 28, piperidino-CNU 15 (exp. 3), dimethylmorpholino-CNU 45 mg/kg (exp. 4); for Mean animal weight on day 50: day 50 after tumor transplantation; for Mean animal weight on day 100: day 100 after tumor transplantation
Description: as §1, §2, §3
In all treated animals and at all doses tested the mean weight gain was lower than in the controls. Table 3 gives the mean animal weights measured 50 and 100 days after tumor transplantation in experiments 1 to 5.

[3] = system: Yoshida sarcoma; details: previous experiments; i.p.; cited from earlier work
[4] = Experiment 1, CP 70, BCNU 25, MeCCNU 45 mg/kg
[5] = Experiment 1, CP 70, BCNU 25, MeCCNU 45 mg/kg, initial animals CP 30, BCNU 30, MeCCNU 29
[6] = Experiment 1, i.p. day 8, CP 70, BCNU 25, MeCCNU 45 mg/kg
[7] = Experiment 2, CP 70, picolyl-3-CNU 25, picolyl-3-CNU.HCl 25 mg/kg
[8] = Experiment 2, CP 70, picolyl-3-CNU 25, picolyl-3-CNU.HCl 25 mg/kg, 30 initial animals each
[9] = Experiment 3, CP 70, morpholino-CNU 28, piperidino-CNU 15 mg/kg
[10] = Experiment 3, CP 70, morpholino-CNU 28, piperidino-CNU 15 mg/kg, 30 initial animals each
[11] = Experiment 5, CP 70, picolyl-3-CNU.HCl 25, morpholino-CNU 28, piperidino-CNU 15 mg/kg
[12] = Experiment 5, CP 70, picolyl-3-CNU.HCl 25, morpholino-CNU 28, piperidino-CNU 15 mg/kg, 15 initial animals (picolyl-3-CNU.HCl 14)
[13] = Experiment 5, CP 70, piperidino-CNU 15 mg/kg

In the case of `O=NN(CCCl)C(=O)NCCCl` [BCNU, 1,3-bis-(2-chloroethyl)-1-nitrosourea], the “tumor-free animals at the end of the experiment (in words)” value ([1]; 120 days) is reported as “increased the rate of tumor-free animals alive at the end of the experiment”, the “increase in tumor-free animals (cures) above controls” value ([1]; 120 days, CP (exp. 1-3), BCNU, MeCCNU 45, dimethylmorpholine-CNU 45, piperidino-CNU 15, picolyl-3-CNU.HCl 25 mg/kg) is reported as 18% and the “D1-120 = difference (%) between tf1-120 of treated and untreated animals” value [1, 4] is reported as 22%. The “D120 = difference (%) between tf120 of treated and untreated animals” value (“D120 = difference (%) between tf120” for short) [1, 4] was 18%, the “tf1-120 (%) (tf120 + animals dying of toxicity)” value (from here on “tf1-120 (%)”) [1, 4] was 47% and the “tf120 (%) (animals surviving day 120 without tumor)” value [1, 4] was 43%. For the same molecule, the “tf1-120, No. (tf120 + animals dying of toxicity)” value [1, 5] was 14, the “tf120, No. (animals surviving day 120 without tumor)” value [1, 5] was 13 and the “% M (median survival time, untreated control = 100)” value [1, 6] was 160%. The “M = median survival time” value [1, 6] was 74 days, the “Mean animal weight on day 50” value [2] was 270 g and the “Mean animal weight on day 100” value [2] was 300 g. The “activity against Yoshida sarcoma, shown previously (in words)” value [3] was “active”.

With `O=P1(N(CCCl)CCCl)NCCCO1` (stereo not drawn) [CP, 2-bis-(β-chloroethyl)-amino-oxo-2-oxa-2-λ^5-phospha-3-aza-cyclohexane] the “D1-120 = difference (%) between tf1-120 of treated and untreated animals” value [1, 4] was 38%, the “D120 = difference (%) between tf120” value [1, 4] was 25% and the “tf1-120 (%)” value [1, 4] was 63%. The “tf120 (%) (animals surviving day 120 without tumor)” value [1, 4] was 50%, the “tf1-120, No. (tf120 + animals dying of toxicity)” value [1, 5] was 21 and the “tf120, No. (animals surviving day 120 without tumor)” value [1, 5] was 15. The “% M (median survival time, untreated control = 100)” value [1, 6] was over 260%, the “M = median survival time” value [1, 6] was over 120 days and the “% M (median survival time, untreated control = 100)” value [1, 7] was over 545%. The “D1-120 = difference (%) between tf1-120 of treated and untreated animals” value [1, 7] was 58%, the “D120 = difference (%) between tf120” value [1, 7] was 35% and the “tf1-120 (%)” value [1, 7] was 80%. For the same molecule, the “tf120 (%) (animals surviving day 120 without tumor)” value [1, 7] was 57%, the “tf1-120, No. (tf120 + animals dying of toxicity)” value [1, 8] was 24 and the “tf120, No. (animals surviving day 120 without tumor)” value [1, 8] was 17. For the same molecule, the “M = median survival time” value ([1]; Experiment 2, i.p. day 8, CP 70, picolyl-3-CNU 25, picolyl-3-CNU.HCl 25 mg/kg) was over 120 days, the “% M (median survival time, untreated control = 100)” value [1, 9] was over 686% and the “D1-120 = difference (%) between tf1-120 of treated and untreated animals” value [1, 9] was 48%. The “D120 = difference (%) between tf120” value [1, 9] was 38%, the “tf1-120 (%)” value [1, 9] was 77% and the “tf120 (%) (animals surviving day 120 without tumor)” value [1, 9] was 67%. The “tf1-120, No. (tf120 + animals dying of toxicity)” value [1, 10] was 23, the “tf120, No. (animals surviving day 120 without tumor)” value [1, 10] was 20 and the “M = median survival time” value ([1]; Experiment 3, i.p. day 8, CP 70, morpholino-CNU 28, piperidino-CNU 15 mg/kg) was over 120 days. The “% M (median survival time, untreated control = 100)” value [1, 11] was 400%, the “D1-120 = difference (%) between tf1-120 of treated and untreated animals” value [1, 11] was 7% and the “D120 = difference (%) between tf120” value [1, 11] was 7%. The “tf1-120, No. (tf120 + animals dying of toxicity)” value [1, 12] was 1, the “tf120, No. (animals surviving day 120 without tumor)” value [1, 12] was 1 and the “tf120, No. (animals surviving day 120 without tumor)” value ([1]; Experiment 5, CP 70, picolyl-3-CNU.HCl 25, morpholino-CNU 28, piperidino-CNU 15 mg/kg, 15 initial animals (picolyl-3-CNU.HCl 14), listed as cyclophosphamide) was 1/15. For the same molecule, the “tf1-120 (%)” value [1, 13] was 7%, the “tf120 (%) (animals surviving day 120 without tumor)” value [1, 13] was 7% and the “M = median survival time” value ([1]; Experiment 5, i.p. day 8, CP 70, picolyl-3-CNU.HCl 25, morpholino-CNU 28, piperidino-CNU 15 mg/kg) was 40 days. The “rate of tumor-free animals treated with cyclophosphamide in the other experiments” value ([1]; after 120 days, experiments other than experiment 5, listed as cyclophosphamide) was 50% and 57% and 67%, the “p for improvement of survival time / life expectancy” value ([1]; compared with controls, CP (exp. 1-3), dimethylmorpholine-CNU 45 mg/kg) was < 0,05 and the “effect on survival time / life expectancy (in words)” value ([1]; experiments 1-4, MeCCNU 45, morpholino-CNU 28 (exp. 3 and 5), dimethylmorpholine-CNU 45, piperidino-CNU 15, picolyl-3-CNU 25, picolyl-3-CNU.HCl 25 mg/kg) was “improved significantly”. For the same molecule, the “chemotherapeutic activity against Yoshida sarcoma in the colon wall (in words)” value ([1]; i.p.) was “most active compound”, the “Mean animal weight on day 50” value [2] was 300 to 330 g and the “Mean animal weight on day 100” value [2] was 300 to 370 g. The “activity against Yoshida sarcoma, shown previously (in words)” value [3] was “responds favorably”.

From US4377687A, “Analogs of 1-(2-chloroethyl)-1-nitroso-3-(cycloheyl)-urea substituted by heterocyclic rings or alkyl radicals” (Stiftung Deutsches Krebsforschungszentrum, priority 1978, dated 1983)
